Test results: PMC6608960 (PLoS ONE, 2019)
Each block holds one compound with its values, some of them ahead of it. Where a SMILES comes first, the peptide text is derived from it.

Tests used:
[1] = target: T1, V2 receptor (AVP-R2) overexpressed in CHO-K1 cells (Homo sapiens, UniProt P30518); experiment: Intracellular cAMP release in AVP-R2 CHO-K1 cells (cAMP Hunter eXpress); type: cell-based; conditions: peptide alone, 30 min at 37°C, chemiluminescent read-out
T1 construct: host or cells: CHO-K1
T1 sequence (P30518 whole entry): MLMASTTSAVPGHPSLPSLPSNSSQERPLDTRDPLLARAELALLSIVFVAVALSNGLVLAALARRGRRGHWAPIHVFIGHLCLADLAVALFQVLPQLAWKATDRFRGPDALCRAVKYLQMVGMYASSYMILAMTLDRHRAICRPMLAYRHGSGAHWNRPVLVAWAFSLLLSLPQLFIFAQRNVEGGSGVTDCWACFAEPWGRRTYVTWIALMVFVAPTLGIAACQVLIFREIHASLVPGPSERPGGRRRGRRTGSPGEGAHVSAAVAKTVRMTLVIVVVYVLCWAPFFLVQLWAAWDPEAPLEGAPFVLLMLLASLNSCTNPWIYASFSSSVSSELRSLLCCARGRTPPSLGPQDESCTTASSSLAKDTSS
Protocol: Changes in intracellular cAMP level in response to agonist stimulation of the GPCR receptor was detected with a chemiluminescent cAMP Hunter eXpress Cat.No: # 95-0150E2CP2M kit from DiscoveRx (www.discoverx.com). A standard curve of cAMP (in duplicate) was included in the same plate and used to report data in nM cAMP. […] The values of cAMP were presented as relative light units (RLU) or they were calculated in nM from the standard curve.

Wistar rats = experiment: Urine, sodium and potassium outflow after iv injection in rats (metabolic cages, 5 h); type: in vivo; conditions: Wistar rat
Protocol: Experiments were performed using 8-week-old Wistar rats (225-250g) purchased from Charles River laboratories (St. Constant, QC, CA). Rats were housed in a standard temperature and light condition with access to water and irradiated standard rodent diet (Harlan Laboratories Inc., IN, USA) ad libitum. At the end of experiments, rats were anaesthetized with sodium pentobarbital (5mg/100 g body wt. i.p.; 20 𝜇mol/100 g body wt.) and blood samples (2mL, EDTA) were collected. Rats were euthanized by cervical decapitation.
Peptides were dissolved at the desired concentration in 0.3 mL of the vehicle and administered as a single bolus in the tail vein.
Both antagonists (OTA, V2A) were administered to rats at the concentration of 10 μmol/kg under normal conditions (0.3 mL iv injection) and with blood volume expansion (5 mL iv injection). Rats (n = 24 per condition) received combination treatment in random order separated by a 2–3 day interval. For both series of experiments, rats were placed in metabolic cages for a period of 5 hours to collect urine for the determination of sodium and potassium levels. Metabolic cages were kept in a bright and quiet room and rats were deprived of food and water during this period.
The concentrations of excreted sodium and potassium were determined by flame spectrometry (iCE 3000 series AA spectrometer; Thermo Fisher Scientific, Cambridge, UK).

EC50 [1]: 1.1 µM
Compound: CC[C@H](C)[C@@H]1NC(=O)[C@H](Cc2ccc(O)cc2)NC(=O)[C@@H](N)CSSC[C@@H](C(=O)N2CCC[C@H]2C(=O)N[C@@H](CC(C)C)C(=O)NCC(=O)NCC(=O)N[C@@H](CCCCN)C(=O)N[C@@H](CCCNC(=N)N)C(=O)O)NC(=O)[C@H](CC(N)=O)NC(=O)[C@H](CCC(N)=O)NC1=O [OT-GKR] (HELM PEPTIDE1{C.Y.I.Q.N.C.P.L.G.G.K.R}$PEPTIDE1,PEPTIDE1,1:R3-6:R3$$$V2.0)

Compound: [d(CH2)5, D-Ile2, Ile4, Tyr-NH29]-AVP [V2A]
effect of antagonist alone on diuresis (Wistar rats; V2A alone iv, normal volume and blood volume expansion): significant diuresis

Compound: [d(CH2)5, Tyr(Me)2, Thr4, Orn8, Tyr-NH29]-vasotocin [OTA]
effect of antagonist on OT-stimulated diuresis (Wistar rats; OTA co-administered with OT, normal volume and blood volume expansion (5 mL)): inhibited OT-stimulated diuresis to control and BVE levels
